Experimental data as given in patent publication US7279175B2, “Stent coated with a sustained-release drug delivery and method for use thereof” (Psivida Inc., priority 2001, dated 2007).
Blank lines part the entries; values can stand above or below the molecule they belong to.

Tests used:
[1] = In vitro release from stents coated with 1:1 mixture of TA and 5FU without chemical linkage; type: physicochemical; details: mixture coating, 0.1M phosphate buffer pH 7.4, 37° C.
Method: Stents were coated with a mixture of TA and 5FU in a mole-ratio of 1 to 1 without chemical linkage. The release rate was determined in vitro by placing the coated stents in 0.1M phosphate buffer (pH 7.4) at 37° C. Samples of the buffer solution were periodically removed for analysis by HPLC, and the buffer was replaced to avoid any saturation effects.
Because of the hydrophilic nature of 5FU, this compound was released from the mixture coating much faster than from the codrug coating. Within 4 weeks, more than 95% of total 5FU was released. TA release from the drug mixture coating was much slower, with about 20% TA released over the first 6 weeks.

[2] = Release test from PVA-coated glass plates into phosphate buffer (HPLC); type: physicochemical; details: 0.1 M phosphate buffer pH 7.4, 37° C., intact plus constituents
[3] = Release test from silicone-coated glass plates into phosphate buffer (HPLC); details: silicone coating, up to day 6; detected plus hydrolyzed

total 5FU released ([1]; within 4 weeks): more than 95%
Compound: O=c1[nH]cc(F)c(=O)[nH]1 [5FU, 5-fluorouracil]

TA released ([1]; over the first 6 weeks): about 20%
Compound: CC1(C)O[C@@H]2C[C@H]3[C@@H]4CCC5=CC(=O)C=C[C@]5(C)[C@@]4(F)[C@@H](O)C[C@]3(C)[C@]2(C(=O)CO)O1 [TA, triamcinolone acetonide]

release rate (slope of total cumulative release curve) [2]: 10 µg/day
total TC-112 released [3]: 122.4 mg
Compound: COc1ccc2cc(C(C)C(=O)OCn3cc(F)c(=O)[nH]c3=O)ccc2c1 (stereo not shown) [TC-112]
